PMC7614683, “A small molecule PI3Kα activator for cardioprotection and neuroregeneration” (Nature, 2023)

Columns and labels:
CDK8/cyclin C = CDK8/cyclin C (Homo sapiens, UniProt P49336); assay: SelectScreen LanthaScreen Binding; settings: 1000 nM
Method: (§1) 133 protein kinases and 7 lipid kinases were counterscreened, with 1938 used at 1 μM, using the Adapta, Lantha and Z-LYTE assays (SelectScreen Kinase Profiling Service; Thermofisher – experimental details of these assays can be found here: https://www.thermofisher.com/uk/en/home/industrial/pharma-biopharma/drug-discovery-development/target-and-lead-identification-and-validation/kinasebiology/kinase-activity-assays.html. The tree represention in KinMap[59] generated courtesy of Cell Signaling Technology, Inc. (www.cellsignal.com). mTORC1 (mTOR/RAPTOR/LST8) protein complex and ATM kinase and substrates were produced as previously described[57],[60]. Screening of 1938 was conducted using SuperSep Phos-Tag 50 μmol/l 100 x 100 x 6.6 mm 17-well (192-18001/199-18011) gels. For ATM assays, 100 nM ATM was incubated for 30 min at 30°C with 5 μM GST-p53 and 1 mM ATP, in the absence or presence of 200 μM 1938 in ATM Kinase Buffer (50 mM HEPES pH 7.5, 100 mM NaCl, 10% glycerol, 2 mM […], 5 mM MgCl2). As a positive control for ATM activation, the same reaction was carried out with 100 nM ATM/5 μM GST-p53/1 mM ATP in the presence of 100 nM Mre11-Rad50-Nbs1 (MRN) complex, a known activator of ATM[61]. For mTORC1 assays, 50 nM mTORC1 complex (mTOR/LST8/RAPTOR) was incubated for 3 h at 30°C with 15 μM 4E-BP1, 10 mM MgCl2 and 250 μM ATP, in the absence or presence of 200 μM 1938. As a ‘positive’ control, a higher concentration (150 nM) of mTORC1 complex (mTOR/LST8/RAPTOR) was incubated for 3 h at 30°C with 15 μM 4E-BP1, 10 mM MgCl2 and 250 μM ATP. Kinase reactions were quenched by addition of SDS-PAGE Loading Buffer (as per manufacturer’s instructions) and freezing at -20°C before being run on the Phos-tag gels at 150 V for 90 min. Gels were then stained using InstantBlue™ Coomassie, and quantified using BioRad Image Lab Software. Kinase assays were carried out in triplicate.

AAK1 = AAK1 (Homo sapiens, UniProt Q2M2I8); assay: SelectScreen LanthaScreen Binding; settings: 1000 nM
Chain of AAK1 (Q2M2I8 whole entry): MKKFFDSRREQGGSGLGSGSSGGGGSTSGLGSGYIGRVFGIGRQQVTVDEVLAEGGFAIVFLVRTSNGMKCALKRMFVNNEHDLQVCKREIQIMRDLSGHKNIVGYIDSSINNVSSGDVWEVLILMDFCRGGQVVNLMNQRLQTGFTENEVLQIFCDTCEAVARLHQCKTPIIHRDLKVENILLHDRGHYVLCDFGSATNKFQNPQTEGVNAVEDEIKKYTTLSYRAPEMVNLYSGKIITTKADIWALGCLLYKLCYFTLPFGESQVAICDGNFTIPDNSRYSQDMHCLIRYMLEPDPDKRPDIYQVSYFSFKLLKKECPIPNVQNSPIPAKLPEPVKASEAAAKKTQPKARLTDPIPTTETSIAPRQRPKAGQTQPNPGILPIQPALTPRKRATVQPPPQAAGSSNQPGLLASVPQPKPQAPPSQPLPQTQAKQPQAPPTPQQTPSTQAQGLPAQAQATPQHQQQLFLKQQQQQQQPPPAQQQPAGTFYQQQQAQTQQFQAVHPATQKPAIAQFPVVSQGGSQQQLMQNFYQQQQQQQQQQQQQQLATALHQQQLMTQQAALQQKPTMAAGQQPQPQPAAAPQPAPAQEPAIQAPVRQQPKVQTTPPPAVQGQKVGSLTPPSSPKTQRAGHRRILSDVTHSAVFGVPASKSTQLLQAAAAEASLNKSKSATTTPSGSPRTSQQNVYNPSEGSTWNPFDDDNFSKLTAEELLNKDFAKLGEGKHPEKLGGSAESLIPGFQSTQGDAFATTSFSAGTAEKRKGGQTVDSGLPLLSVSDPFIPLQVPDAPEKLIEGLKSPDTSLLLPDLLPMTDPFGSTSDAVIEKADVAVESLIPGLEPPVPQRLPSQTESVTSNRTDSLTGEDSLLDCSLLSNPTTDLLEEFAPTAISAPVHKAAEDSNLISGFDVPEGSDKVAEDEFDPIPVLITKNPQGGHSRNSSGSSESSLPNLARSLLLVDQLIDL
Method: as §1

MKNK2 (MNK2) = MKNK2 (MNK2) (Homo sapiens, UniProt Q9HBH9); assay: SelectScreen LanthaScreen Binding; settings: 1000 nM
Chain of MKNK2 (MNK2) (Q9HBH9 whole entry): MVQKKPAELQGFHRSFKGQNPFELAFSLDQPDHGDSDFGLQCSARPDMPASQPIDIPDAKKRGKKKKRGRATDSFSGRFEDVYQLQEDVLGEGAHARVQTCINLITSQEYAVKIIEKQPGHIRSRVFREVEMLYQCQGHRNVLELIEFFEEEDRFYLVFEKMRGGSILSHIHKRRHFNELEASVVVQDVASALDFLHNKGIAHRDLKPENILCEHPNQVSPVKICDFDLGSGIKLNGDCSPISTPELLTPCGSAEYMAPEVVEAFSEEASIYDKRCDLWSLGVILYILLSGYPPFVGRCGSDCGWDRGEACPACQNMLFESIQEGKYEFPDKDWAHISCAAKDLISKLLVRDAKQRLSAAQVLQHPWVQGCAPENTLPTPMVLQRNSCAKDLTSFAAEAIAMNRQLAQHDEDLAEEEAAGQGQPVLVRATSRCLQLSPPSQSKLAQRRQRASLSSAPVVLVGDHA
Method: as §1

MAP4K3 (GLK) = target: T1, MAP4K3 (GLK) (Homo sapiens, UniProt Q8IVH8); assay: SelectScreen LanthaScreen Binding; settings: 1000 nM
T1 sequence (Q8IVH8 1-894): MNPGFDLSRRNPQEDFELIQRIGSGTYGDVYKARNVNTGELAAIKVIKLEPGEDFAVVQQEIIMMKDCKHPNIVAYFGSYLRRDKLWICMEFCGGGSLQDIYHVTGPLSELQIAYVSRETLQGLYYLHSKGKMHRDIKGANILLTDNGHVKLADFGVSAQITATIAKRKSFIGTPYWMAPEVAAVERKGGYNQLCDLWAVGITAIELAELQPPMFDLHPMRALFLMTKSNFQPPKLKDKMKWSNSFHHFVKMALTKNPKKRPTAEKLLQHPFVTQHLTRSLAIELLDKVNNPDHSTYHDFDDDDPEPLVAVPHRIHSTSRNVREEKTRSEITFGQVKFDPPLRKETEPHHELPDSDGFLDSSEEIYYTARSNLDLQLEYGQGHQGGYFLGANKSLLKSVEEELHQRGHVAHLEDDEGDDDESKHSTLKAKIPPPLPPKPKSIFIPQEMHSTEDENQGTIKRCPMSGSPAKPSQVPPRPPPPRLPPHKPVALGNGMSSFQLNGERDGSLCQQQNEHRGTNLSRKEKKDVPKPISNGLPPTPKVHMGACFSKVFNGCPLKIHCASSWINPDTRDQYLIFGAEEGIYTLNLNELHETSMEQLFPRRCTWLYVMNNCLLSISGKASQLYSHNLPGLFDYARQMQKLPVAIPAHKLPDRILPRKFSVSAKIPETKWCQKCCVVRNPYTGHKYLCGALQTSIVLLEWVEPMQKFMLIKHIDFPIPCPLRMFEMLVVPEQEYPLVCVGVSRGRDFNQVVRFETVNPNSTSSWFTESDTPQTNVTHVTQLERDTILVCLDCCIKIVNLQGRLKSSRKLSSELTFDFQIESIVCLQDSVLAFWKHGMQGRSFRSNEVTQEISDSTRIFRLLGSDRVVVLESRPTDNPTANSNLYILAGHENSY
Method: as §1

PI3Kα H1047R mutant = PI3Kα H1047R mutant (Homo sapiens, UniProt P42336, H1047R); assay: ADP-Glo catalytic activity, oncogenic mutant H1047R; assay type: biochemical
Chain of PI3Kα H1047R mutant (P42336 whole entry H1047R): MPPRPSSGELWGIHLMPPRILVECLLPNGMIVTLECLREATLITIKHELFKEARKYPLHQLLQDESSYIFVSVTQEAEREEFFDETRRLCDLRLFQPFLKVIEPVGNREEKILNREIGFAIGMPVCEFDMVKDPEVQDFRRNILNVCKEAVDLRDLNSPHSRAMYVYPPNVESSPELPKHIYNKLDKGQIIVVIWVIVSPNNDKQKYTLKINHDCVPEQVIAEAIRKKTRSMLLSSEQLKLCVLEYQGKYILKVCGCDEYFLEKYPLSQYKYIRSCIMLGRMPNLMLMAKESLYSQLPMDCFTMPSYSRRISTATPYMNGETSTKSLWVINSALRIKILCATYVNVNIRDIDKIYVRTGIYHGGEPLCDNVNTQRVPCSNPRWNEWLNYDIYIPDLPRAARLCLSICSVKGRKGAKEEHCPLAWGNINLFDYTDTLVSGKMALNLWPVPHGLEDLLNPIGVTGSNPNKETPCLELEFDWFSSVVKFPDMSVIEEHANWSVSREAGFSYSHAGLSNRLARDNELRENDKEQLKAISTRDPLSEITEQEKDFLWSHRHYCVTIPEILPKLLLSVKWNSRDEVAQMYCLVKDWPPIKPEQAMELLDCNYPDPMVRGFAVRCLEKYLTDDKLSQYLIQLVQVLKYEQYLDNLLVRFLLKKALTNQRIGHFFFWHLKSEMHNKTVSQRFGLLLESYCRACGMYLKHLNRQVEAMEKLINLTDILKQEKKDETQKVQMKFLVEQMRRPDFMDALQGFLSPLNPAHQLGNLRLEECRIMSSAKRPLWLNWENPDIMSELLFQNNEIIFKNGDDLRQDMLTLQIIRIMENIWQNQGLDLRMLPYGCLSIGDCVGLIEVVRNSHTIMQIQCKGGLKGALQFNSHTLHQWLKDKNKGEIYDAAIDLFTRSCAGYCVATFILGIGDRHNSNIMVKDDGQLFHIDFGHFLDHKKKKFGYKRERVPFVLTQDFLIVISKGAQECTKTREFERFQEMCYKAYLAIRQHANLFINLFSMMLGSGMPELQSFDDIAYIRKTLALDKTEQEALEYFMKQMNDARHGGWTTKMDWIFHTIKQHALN
Chain of PI3Kα H1047R mutant (P27986 whole entry partner): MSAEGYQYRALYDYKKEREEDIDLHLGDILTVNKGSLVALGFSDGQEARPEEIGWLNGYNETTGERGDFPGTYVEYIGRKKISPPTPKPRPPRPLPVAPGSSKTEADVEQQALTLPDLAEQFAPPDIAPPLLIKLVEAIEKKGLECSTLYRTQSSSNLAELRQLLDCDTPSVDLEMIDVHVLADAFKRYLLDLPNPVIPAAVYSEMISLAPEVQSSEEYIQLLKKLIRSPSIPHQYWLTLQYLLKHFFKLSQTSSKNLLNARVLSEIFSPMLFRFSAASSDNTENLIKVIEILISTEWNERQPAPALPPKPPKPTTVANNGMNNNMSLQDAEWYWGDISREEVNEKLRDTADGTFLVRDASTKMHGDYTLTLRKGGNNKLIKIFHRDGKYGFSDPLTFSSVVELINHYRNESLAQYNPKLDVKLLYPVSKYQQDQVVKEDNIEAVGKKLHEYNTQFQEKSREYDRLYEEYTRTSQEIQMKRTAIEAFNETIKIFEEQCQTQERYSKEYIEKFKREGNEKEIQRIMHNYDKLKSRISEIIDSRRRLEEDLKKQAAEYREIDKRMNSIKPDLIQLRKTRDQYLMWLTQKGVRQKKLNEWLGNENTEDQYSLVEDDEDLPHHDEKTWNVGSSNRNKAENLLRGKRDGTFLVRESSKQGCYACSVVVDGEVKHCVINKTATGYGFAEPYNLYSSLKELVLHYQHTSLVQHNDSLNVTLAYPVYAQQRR
Method: For characterisation of the effects of 1938 on in vitro PI3K enzymology, all reactions were performed at room temperature with 384 white-polystyrene plates (Corning #3574). The final DMSO concentration in the assay was between 0.5%-1.8%. The reaction mixture contained 2 μl PI3K enzyme, 2 μl compound and/or pY and 2 μl of liposome substrate mixed with ATP. ATP was used at a final concentration of 200 μM, unless otherwise stated. The enzyme and compounds were pre-incubated for 10 min prior to addition of substrate. The reaction was allowed to proceed for up to 45 min at room temperature, before addition of 6 μl of ADP-Glo R1 to terminate the reaction. The plate was incubated for 60 min, followed by addition of 12 μl of ADP-Glo R2 and incubated further for 60 min in the dark. Data was expressed as velocity (nmol of ADP generated/nmol of enzyme/sec). ADP-ATP standard curves were performed according to the manufacturer’s instructions. Luminescence was read using a PHERAstar® plate reader with software version 5.41, and analyses were performed using GraphPad Prism 8/9.

Chain of CDK8/cyclin C (P49336 whole entry): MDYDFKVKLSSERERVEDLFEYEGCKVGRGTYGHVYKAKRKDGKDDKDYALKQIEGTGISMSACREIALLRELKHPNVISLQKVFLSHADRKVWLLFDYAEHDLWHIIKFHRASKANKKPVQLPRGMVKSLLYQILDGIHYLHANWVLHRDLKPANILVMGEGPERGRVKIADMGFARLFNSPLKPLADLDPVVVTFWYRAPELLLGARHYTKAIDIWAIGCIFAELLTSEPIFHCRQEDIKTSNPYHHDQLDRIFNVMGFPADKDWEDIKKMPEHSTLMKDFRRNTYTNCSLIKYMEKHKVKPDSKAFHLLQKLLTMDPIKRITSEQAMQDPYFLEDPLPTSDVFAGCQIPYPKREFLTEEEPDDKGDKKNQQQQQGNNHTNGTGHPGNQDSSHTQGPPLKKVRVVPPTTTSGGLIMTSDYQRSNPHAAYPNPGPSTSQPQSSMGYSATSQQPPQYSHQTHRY
Chain of CDK8/cyclin C (P24863 whole entry partner): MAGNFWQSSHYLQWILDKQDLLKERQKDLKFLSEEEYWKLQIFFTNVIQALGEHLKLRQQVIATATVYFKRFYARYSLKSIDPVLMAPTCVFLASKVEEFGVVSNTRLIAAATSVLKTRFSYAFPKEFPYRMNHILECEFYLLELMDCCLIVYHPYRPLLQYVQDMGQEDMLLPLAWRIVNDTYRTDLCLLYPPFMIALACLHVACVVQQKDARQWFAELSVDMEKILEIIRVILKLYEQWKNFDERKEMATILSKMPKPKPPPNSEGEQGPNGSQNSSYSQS

SMILES: CCN1CCN(c2ccc(Nc3cc(Nc4cccc5c4N(C(C)=O)CC5)ccn3)cc2)CC1 [Compound 1938]
- % Displacement Point 1 (CDK8/cyclin C): -0.599%
- % Displacement Point 2 (CDK8/cyclin C): 0.85%
- % Displacement mean (CDK8/cyclin C): 0.126%
- % Displacement Point 1 (AAK1): 26%
- % Displacement Point 2 (AAK1): 25%
- % Displacement mean (AAK1): 25%
- % Displacement Point 1 (MKNK2 (MNK2)): 20%
- % Displacement Point 2 (MKNK2 (MNK2)): 17%
- % Displacement mean (MKNK2 (MNK2)): 18%
- % Displacement Point 1 (MAP4K3 (GLK)): -1.29%
- % Displacement Point 2 (MAP4K3 (GLK)): 0.495%
- % Displacement mean (MAP4K3 (GLK)): -0.396%
- activation of H1047R mutant (PI3Kα H1047R mutant): levels comparable with stimulation with pY
